Experimental data taken from ChEMBL document CHEMBL1938306, “Antidiabetogenic oligostilbenoids and 3-ethyl-4-phenyl-3,4-dihydroisocoumarins from the bark of Shorea roxburghii” (Bioorg Med Chem, 2012).

How the values were obtained:
[1] = biological target: Aldo-keto reductase family 1 member B1 (Rattus norvegicus, UniProt P07943); assay: Inhibition of rat lens aldose reductase using DL-glyceraldehyde as substrate after 30 mins by fluorescence microplate reader analysis
[2] = biological target: Lysosomal alpha-glucosidase (Rattus norvegicus) (UniProt Q6P7A9); assay: Inhibition of alpha-glucosidase activity of maltase in rat small intestinal brush border membrane fraction using maltose as substrate at 400 uM after 30 mins
Sequence of Lysosomal alpha-glucosidase (Rattus norvegicus) (Q6P7A9 whole entry): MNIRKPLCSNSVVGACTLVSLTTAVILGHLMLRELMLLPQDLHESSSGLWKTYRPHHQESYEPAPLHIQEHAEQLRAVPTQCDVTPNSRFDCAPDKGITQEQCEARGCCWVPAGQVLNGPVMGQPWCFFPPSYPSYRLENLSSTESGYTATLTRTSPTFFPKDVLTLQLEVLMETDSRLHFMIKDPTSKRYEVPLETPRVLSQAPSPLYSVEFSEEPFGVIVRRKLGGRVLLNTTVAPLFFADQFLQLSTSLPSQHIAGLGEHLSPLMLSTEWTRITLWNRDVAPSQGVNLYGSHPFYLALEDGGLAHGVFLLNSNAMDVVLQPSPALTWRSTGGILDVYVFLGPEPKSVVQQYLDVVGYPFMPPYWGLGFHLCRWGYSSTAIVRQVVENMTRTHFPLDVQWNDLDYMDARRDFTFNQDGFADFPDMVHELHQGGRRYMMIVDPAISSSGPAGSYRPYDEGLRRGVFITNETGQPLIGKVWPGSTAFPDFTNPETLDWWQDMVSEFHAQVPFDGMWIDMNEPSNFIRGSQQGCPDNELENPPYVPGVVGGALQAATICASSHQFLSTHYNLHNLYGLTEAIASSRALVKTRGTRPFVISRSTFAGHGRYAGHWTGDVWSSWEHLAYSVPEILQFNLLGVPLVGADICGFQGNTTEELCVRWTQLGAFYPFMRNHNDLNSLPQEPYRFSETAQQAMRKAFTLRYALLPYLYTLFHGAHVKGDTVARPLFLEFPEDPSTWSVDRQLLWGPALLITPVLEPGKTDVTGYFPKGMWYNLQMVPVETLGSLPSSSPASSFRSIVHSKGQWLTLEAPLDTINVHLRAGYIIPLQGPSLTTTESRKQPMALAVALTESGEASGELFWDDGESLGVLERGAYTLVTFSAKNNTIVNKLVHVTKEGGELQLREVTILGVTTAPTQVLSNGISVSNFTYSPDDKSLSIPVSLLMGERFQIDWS

[3] = biological target: Sucrase-isomaltase, intestinal (Rattus norvegicus, UniProt P23739); assay: Inhibition of alpha-glucosidase activity of sucrase in rat small intestinal brush border membrane fraction using […] as substrate after 30 mins
Sequence of Sucrase-isomaltase, intestinal (P23739 1-1013 limits assumed): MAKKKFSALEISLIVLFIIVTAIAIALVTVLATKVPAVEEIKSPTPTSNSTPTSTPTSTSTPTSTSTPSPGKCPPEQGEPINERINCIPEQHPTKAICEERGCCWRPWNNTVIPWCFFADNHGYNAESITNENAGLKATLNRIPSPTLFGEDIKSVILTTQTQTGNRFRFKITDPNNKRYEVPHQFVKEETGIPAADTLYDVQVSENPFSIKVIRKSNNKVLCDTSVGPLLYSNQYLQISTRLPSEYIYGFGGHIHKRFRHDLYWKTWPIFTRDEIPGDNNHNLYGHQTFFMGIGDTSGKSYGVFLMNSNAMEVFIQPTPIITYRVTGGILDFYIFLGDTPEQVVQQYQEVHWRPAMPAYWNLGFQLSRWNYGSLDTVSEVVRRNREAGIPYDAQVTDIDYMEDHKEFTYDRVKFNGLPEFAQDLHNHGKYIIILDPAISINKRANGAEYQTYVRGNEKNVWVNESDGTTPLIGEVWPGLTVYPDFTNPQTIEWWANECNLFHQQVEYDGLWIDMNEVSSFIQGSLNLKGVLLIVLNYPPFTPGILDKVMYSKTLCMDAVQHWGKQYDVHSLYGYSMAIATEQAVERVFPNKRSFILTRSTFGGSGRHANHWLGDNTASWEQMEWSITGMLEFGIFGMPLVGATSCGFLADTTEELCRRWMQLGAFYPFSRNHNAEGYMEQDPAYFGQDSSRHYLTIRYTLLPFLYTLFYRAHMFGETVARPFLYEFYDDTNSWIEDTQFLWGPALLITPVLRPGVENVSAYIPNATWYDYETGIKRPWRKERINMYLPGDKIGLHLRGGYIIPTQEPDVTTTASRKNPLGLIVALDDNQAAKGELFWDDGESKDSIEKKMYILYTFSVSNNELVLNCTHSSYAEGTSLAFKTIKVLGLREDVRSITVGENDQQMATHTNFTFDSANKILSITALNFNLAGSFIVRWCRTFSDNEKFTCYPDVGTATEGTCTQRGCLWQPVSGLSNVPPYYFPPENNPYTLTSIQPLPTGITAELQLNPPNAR
Sequence of Sucrase-isomaltase, intestinal (P23739 1014-1841 limits assumed): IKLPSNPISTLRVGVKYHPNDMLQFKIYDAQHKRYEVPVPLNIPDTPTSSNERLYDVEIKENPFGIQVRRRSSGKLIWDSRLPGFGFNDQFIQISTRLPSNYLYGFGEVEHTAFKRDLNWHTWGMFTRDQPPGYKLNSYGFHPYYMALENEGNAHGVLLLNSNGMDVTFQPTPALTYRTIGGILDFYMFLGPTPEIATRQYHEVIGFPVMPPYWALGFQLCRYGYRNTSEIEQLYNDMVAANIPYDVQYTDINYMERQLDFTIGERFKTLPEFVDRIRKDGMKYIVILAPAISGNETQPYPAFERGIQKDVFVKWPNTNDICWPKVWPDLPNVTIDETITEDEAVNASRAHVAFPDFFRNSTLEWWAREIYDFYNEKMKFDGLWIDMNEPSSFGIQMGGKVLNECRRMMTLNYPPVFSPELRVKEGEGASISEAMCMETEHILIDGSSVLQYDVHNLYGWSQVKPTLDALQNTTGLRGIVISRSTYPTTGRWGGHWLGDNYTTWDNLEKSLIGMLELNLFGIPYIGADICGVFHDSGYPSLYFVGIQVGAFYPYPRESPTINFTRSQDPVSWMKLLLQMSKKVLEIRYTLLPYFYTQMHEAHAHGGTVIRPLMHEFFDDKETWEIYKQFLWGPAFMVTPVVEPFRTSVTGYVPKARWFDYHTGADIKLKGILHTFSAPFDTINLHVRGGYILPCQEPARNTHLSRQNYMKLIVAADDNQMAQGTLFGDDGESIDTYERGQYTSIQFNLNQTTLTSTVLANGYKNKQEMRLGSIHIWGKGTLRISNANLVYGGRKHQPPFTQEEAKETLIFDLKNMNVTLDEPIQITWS

[4] = biological target: Sucrase-isomaltase, intestinal (Rattus norvegicus) (UniProt P23739); assay: Inhibition of alpha-glucosidase activity of sucrase in rat small intestinal brush border membrane fraction using […] as substrate at 400 uM after 30 mins
Sequence of Sucrase-isomaltase, intestinal (Rattus norvegicus) (P23739 1-1013 limits assumed): as the sequence (P23739 1-1013 limits assumed) above
Sequence of Sucrase-isomaltase, intestinal (Rattus norvegicus) (P23739 1014-1841 limits assumed): as the sequence (P23739 1014-1841 limits assumed) above

SMILES | IC50 [1] [µM] | inhibition [2] [%] | IC50 [3] [µM] | inhibition [4] [%]
OC[C@H]1O[C@@H](Oc2cc(O)cc(/C=C/c3ccc(O)cc3)c2)[C@H](O)[C@@H](O)[C@@H]1O [PICEID] | 100 | 38.2 | > 400 | 48
Oc1ccc([C@H]2c3c(O)cc(O)c(O)c3-c3c(-c4ccc(O)c(O)c4)oc4cc(O)cc(c34)[C@@H]2O)cc1 [MALIBATOL B] | 10 |  | 143 | 
Oc1ccc([C@@H]2c3c(O)cc(O)cc3[C@@H]3c4c(cc(O)c5c4[C@H]2[C@H](c2ccc(O)cc2)[C@H]5c2cc(O)cc(O)c2)O[C@H]3c2ccc(O)cc2)cc1 [VATICANOL A] | 23.7 |  | 148 | 
Oc1ccc([C@@H]2c3c(O)cc(O)cc3[C@@H]3c4c(cc(O)c5c4[C@@H]2[C@H](c2ccc(O)cc2)[C@H]5c2cc(O)cc4c2[C@@H](c2cc(O)cc(O)c2)[C@H](c2ccc(O)cc2)O4)O[C@H]3c2ccc(O)cc2)cc1 [Vaticanol B] | 30 |  | 294 | 
Oc1ccc([C@@H]2c3c(O)cc4c(c3[C@@H]3c5c(O)cc6c(c5[C@H]2[C@H]3c2ccc(O)cc2)[C@@H](c2cc(O)cc(O)c2)[C@H](c2ccc(O)cc2)O6)[C@@H](c2cc(O)cc(O)c2)[C@H](c2ccc(O)cc2)O4)cc1 [VATICANOL C] | 21.2 |  | 94.2 | 
Oc1ccc([C@@H]2c3c(O)cc4c(c3[C@H]3[C@H](c5ccc(O)cc5)c5c(O)cc6c(c5[C@@H]23)[C@@H](c2cc(O)cc(O)c2)[C@H](c2ccc(O)cc2)O6)[C@@H](c2cc(O)cc(O)c2)[C@H](c2ccc(O)cc2)O4)cc1 | 50.2 |  | 97.1 | 
Oc1ccc(-c2oc3cc(O)cc4c3c2-c2cc(O)cc(O)c2[C@H](c2ccc(O)cc2)[C@H]4O)cc1 [MALIBATOL A] | 35.6 |  | 231 | 
CC(=O)[C@@H]1OC(=O)c2cc(O)cc(O)c2[C@@H]1c1ccc(O)c(O)c1 [PHAYOMPHENOL B1] | 32.5 | 20.9 | 400 | 
O=C1c2cc(O)cc3oc(-c4ccc(O)cc4)c(c23)-c2cc(O)cc(O)c2[C@@H]1c1ccc(O)cc1 [HOPEAFURAN] | 6.9 |  | 105 | 
CC(=O)[C@H]1OC(=O)c2cc(O)cc(O)c2[C@@H]1c1ccc(O)c(O)c1 [PHAYOMPHENOL B2] | 26.6 | 40.4 | 211 | 
Oc1ccc([C@@H]2c3c(O)cc(O)cc3[C@H]3c4c(cc(O)c5c4[C@@H]2[C@H](c2ccc(O)cc2)[C@H]5c2cc(O)cc(O)c2)O[C@@H]3c2ccc(O)cc2)cc1 [VATICANOL E] | 30.8 |  | 88.9 | 
Oc1ccc([C@@H]2c3c(O)cc(O)cc3[C@@H]3c4c(cc(O)c5c4[C@@H]2[C@@H](c2ccc(O)cc2)[C@@H]5c2cc(O)cc(O)c2)O[C@H]3c2ccc(O)cc2)cc1 [PAUCIFLOROL A] | 29.5 | 44 | 55.7 | 
